This note sets out measurements from ChEMBL document CHEMBL5360660, “Cyclin-Dependent Kinase Degradation via E3 Ligase Binding for Potential Disease Modulation in Cancer Treatment” (ACS Med Chem Lett, 2023).

The target of assay [1] is Protein cereblon/Cyclin-dependent kinase 9 (Homo sapiens, UniProt P50750+Q96SW2). Put plainly: PROTAC activity at CRBN/CDK9 in HEK293 cells assessed as induction of CDK9 degradation incubated for 24 hrs by Western blotting analysis. Type of assay: cell-based.
The target of assay [2] is Protein cereblon/Cyclin-dependent kinase 2 (Homo sapiens, UniProt P24941+Q96SW2). The assay is described as follows: PROTAC activity at CRBN/CDK2 in HEK293 cells assessed as induction of CDK2 degradation incubated for 24 hrs by Western blotting analysis. In kind it is cell-based.
In assay [3] the target is Protein cereblon/Cyclin-dependent kinase 5 (Homo sapiens, UniProt Q00535+Q96SW2). Put plainly: PROTAC activity at CRBN/CDK5 in HEK293 cells assessed as induction of CDK5 degradation incubated for 24 hrs by Western blotting analysis. Type of assay: cell-based.
Sequence of Protein cereblon/Cyclin-dependent kinase 5 (Q00535 whole entry): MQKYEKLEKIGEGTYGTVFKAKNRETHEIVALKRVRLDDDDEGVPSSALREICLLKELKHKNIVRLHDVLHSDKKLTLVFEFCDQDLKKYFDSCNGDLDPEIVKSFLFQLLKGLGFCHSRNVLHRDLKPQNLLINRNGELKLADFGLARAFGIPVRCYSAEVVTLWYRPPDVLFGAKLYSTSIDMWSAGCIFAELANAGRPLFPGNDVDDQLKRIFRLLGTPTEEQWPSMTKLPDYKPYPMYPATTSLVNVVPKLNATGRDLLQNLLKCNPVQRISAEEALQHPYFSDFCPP
Sequence of Protein cereblon/Cyclin-dependent kinase 5 (Q96SW2 whole entry): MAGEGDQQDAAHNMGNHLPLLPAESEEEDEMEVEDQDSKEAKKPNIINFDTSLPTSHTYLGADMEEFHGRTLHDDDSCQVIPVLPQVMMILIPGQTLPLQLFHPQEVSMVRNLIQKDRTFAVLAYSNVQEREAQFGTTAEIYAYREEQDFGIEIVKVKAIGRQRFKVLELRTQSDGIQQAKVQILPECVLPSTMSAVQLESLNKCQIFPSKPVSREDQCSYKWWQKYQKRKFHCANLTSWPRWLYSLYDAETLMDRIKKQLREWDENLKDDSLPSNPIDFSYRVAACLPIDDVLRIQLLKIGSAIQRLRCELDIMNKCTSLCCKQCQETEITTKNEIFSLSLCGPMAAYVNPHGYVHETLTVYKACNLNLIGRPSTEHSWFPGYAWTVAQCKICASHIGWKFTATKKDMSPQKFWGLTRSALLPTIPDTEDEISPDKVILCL
Assay [4] deals with Cyclin-dependent kinase 9 (Homo sapiens, UniProt P50750). Put plainly: Binding affinity to CDK9 (unknown origin) assessed as dissociation constant.
Sequence of Cyclin-dependent kinase 9 (P50750 whole entry): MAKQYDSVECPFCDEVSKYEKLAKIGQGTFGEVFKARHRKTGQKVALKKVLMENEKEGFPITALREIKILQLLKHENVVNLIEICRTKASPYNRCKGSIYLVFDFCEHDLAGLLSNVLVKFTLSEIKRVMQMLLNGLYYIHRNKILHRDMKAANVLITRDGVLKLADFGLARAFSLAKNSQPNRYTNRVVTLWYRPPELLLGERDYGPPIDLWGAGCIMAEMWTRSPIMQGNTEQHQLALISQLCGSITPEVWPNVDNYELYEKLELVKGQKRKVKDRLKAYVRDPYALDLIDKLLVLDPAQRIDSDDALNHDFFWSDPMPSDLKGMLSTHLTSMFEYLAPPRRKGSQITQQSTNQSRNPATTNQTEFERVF
The target in assay [5] is Cyclin-dependent kinase 5 (Homo sapiens, UniProt Q00535). Put plainly: Binding affinity to CDK5 (unknown origin) assessed as dissociation constant.
Sequence of Cyclin-dependent kinase 5 (Q00535 whole entry): as the sequence (Q00535 whole entry) above

Sequence of Protein cereblon/Cyclin-dependent kinase 9 (P50750 whole entry): as the sequence (P50750 whole entry) above
Sequence of Protein cereblon/Cyclin-dependent kinase 9 (Q96SW2 whole entry): as the sequence (Q96SW2 whole entry) above

For the compound `O=C(CCCOc1ccc(CC(=O)Nc2cc(C3CCC3)[nH]n2)cc1)NCCCCNc1cccc2c1C(=O)N(C1CCC(=O)NC1=O)C2=O` (configuration not stated), the IC50 stood at 530 nM in assay [1], 155 nM in assay [2] and 7 nM in assay [3].

On to `O=C1CCC(N2C(=O)c3cccc(OCCCCCOc4ccc(CC(=O)Nc5cc(C6CCC6)n[nH]5)cc4)c3C2=O)C(=O)N1` (configuration not stated), for which the figures for the half-maximal inhibitory concentration (IC50) in assay [1] and in assay [3] were 1080 nM and 32 nM, respectively. Besides, the dissociation constant Kd in assay [4] is 1060 nM; in assay [5], 230 nM.
